Key:
[1] = system: collagen-induced platelet aggregation in rabbit plasma; experiment: Inhibition of collagen-induced platelet aggregation in rabbit plasma; type: cell-based; settings: Table III
Text: ^1 Concentration required to inhibit aggregation by 50%.

[2] = system: Collagen-Induced Platelet Aggregation; experiment: Collagen-induced platelet aggregation after oral dosing of rats (platelet rich plasma 2 h after dose); type: in vivo, rat
Protocol: The procedure used is essentially that as described by Born, J. of Phys. […] Rats were orally administered test drugs and after two hours the rats were bled and platelet rich plasma obtained. Collagen was added to the platelet rich plasma to induce platelet aggregation and comparisons were made between control and treated samples.

[3] = system: Evans Blue-Carrageenan Pleural Effusion; experiment: Modification of the Evans Blue-Carrageenan Pleural Effusion Assay (anti-inflammatory activity); type: in vivo; settings: relative to 4-amino-3-benzoylphenylacetic acid; method of Sancilio
Protocol: The prior art (South African Patent 68/4682) discloses 4-amino-3-benzoylphenylacetic acid, m.p. 135°-7° C. The compound was prepared and tested for anti-inflammatory activity by the method of Sancilio referred to immediately hereinabove.

[4] = system: Adenosine Diphosphate-Induced Platelet Aggregation-Rabbit Plasma; experiment: In vitro inhibition of adenosine diphosphate-induced platelet aggregation in rabbit plasma; type: cell-based; settings: Table IV, ADP
Text: Effects on Adenosine Diphosphate-Induced
Platelet Aggregation-Rabbit Plasma

[5] = Table IV comment
[6] = Oryctolagus cuniculus, Platelet, 1.0 mM, read-out: Percent Inhibition
[7] = Table I, 31.60 mg/kg PO, rats, collagen
[8] = Table I, 100.00 mg/kg PO, rats, collagen
[9] = Table I, 10.00 mg/kg PO, rats, collagen

Molecule `O=C(O)c1ccccc1Nc1cccc(C(F)(F)F)c1` [Flufenamic Acid] has an Estimated IC50 (concentration required to inhibit aggregation by 50%) [1] of 2 µM.
In the case of `Nc1c(CC(=O)O)cccc1C(=O)c1ccccc1` [Example 16, Potassium 2-amino-3-benzoylphenylacetate Hydrate], the “Percent Reduction in Aggregation” value ([2]; Table I, 0.20 mg/kg PO, rats, collagen, Hydrate, 0.2 mg/kg) is reported as -56%.
With `Nc1c(CC(=O)[O-])cccc1C(=O)c1ccccc1.[Na+]` [sodium 2-amino-3-benzoylphenylacetate] the “Anti-inflammatory activity, times the activity of the prior art 4-amino-3-benzoylphenylacetic acid” value (shortened to “Anti-inflammatory activity”) [3] was ~48 times.
Work on `Nc1ncnc2c1ncn2[C@@H]1O[C@H](CO)[C@@H](O)[C@H]1O` [Adenosine] yielded an inhibition at 1000 µM [4, 6] of 84%.
With `CC(=O)Oc1ccccc1C(=O)O` [Acetylsalicylic Acid, reference compound] the “Percent Reduction in Aggregation” value ([2]; Table II, 316.0 mg/kg PO, 2 rats) was -74% and the Estimated IC50 (concentration required to inhibit aggregation by 50%) [1] was 23 µM.
With `Nc1c(CC(=O)O)cccc1C(=O)c1ccccc1` [Example 3, 2-Amino-3-benzoylphenylacetic Acid] the “Anti-inflammatory activity” value [3] was “about 39 times”.
In the case of `CCCCC1C(=O)N(c2ccccc2)N(c2ccccc2)C1=O` [Phenylbutazone], the “Percent Reduction in Aggregation” value ([2]; Table II, 50.0 mg/kg PO, 2 rats) is reported as -74%, the inhibition at 400 µM ([4]; Oryctolagus cuniculus, Platelet, 0.4 mM, read-out: Percent Inhibition) is reported as 3% and the inhibition at 800 µM ([4]; Oryctolagus cuniculus, Platelet, 0.8 mM, read-out: Percent Inhibition) is reported as 2%. For the same molecule, the Estimated IC50 (concentration required to inhibit aggregation by 50%) [1] was 150 µM.
For `O=C(O)c1ccccc1O` [Salicyclic Acid], the “Comment: solubility precludes higher testing” value [5] was “precludes higher”, the “Percent Inhibition” value ([4]; 0.05 mM) was 7% and the “Percent Inhibition” value ([4]; 0.50 mM) was 7%. The “Percent Inhibition” value ([4]; 1.0 mM) was 12% and the “Percent Inhibition” value ([4]; 10.0 mM) was 20%.
For `Nc1c(CC(=O)O)cccc1C(=O)c1ccccc1` [Example 8, Sodium 2-amino-3-benzoylphenylacetate Dihydrate], the “Percent Reduction in Aggregation” value ([2]; Table I, 8.00 mg/kg PO, rats, collagen) was -63%, the “Percent Reduction in Aggregation” value ([2]; Table II, 8.0 mg/kg PO, 3 rats) was -63% and the inhibition at 100 µM ([4]; Oryctolagus cuniculus, Platelet, 0.1 mM, read-out: Percent Inhibition) was 4%. For the same molecule, the inhibition at 1000 µM [4, 6] was 8%, the inhibition at 10000 µM ([4]; Oryctolagus cuniculus, Platelet, 10.0 mM, read-out: Percent Inhibition) was 82% and the Estimated IC50 (Comment) [4] was 4000 µM. For the same molecule, the Estimated IC50 (concentration required to inhibit aggregation by 50%) [1] was 0.2 µM and the “Estimated IC50 (concentration required to inhibit aggregation by 50%), value in parentheses” value [1] was 0.2 µM.
In the case of `Nc1cccc(C(=O)c2ccccc2)c1CC(=O)O` [2-amino-6-benzoylphenylacetic acid], the “Anti-inflammatory activity” value [3] is reported as ~3 times.
With `Nc1c(CC(=O)O)cccc1C(=O)c1ccccc1` [Example 25, Magnesium 2-amino-3-benzoylphenylacetate Trihydrate] the “Percent Reduction in Aggregation” value ([2]; Table I, 0.20 mg/kg PO, rats, collagen, Trihydrate, 0.2 mg/kg) was -25%.
For `CN(C)c1c(CC(=O)O)cccc1C(=O)c1ccccc1` [Example 12, 2-Dimethylamino-3-benzoylphenylacetic Acid], the “Percent Reduction in Aggregation” value [2, 7] was -56%.
In the case of `CC(C(=O)[O-])c1cccc(C(=O)c2ccccc2)c1N.O.[Na+]` (stereo not drawn) [Example 15, Sodium 2-amino-3-benzoyl-α-methylphenylacetate Hydrate], the “Percent Reduction in Aggregation” value ([2]; Table I, 3.00 mg/kg PO, rats, collagen) is reported as -56%, the “Percent Reduction in Aggregation” value [2, 7] is reported as -48% and the “Percent Reduction in Aggregation” value [2, 8] is reported as -76%.
In the case of `Nc1c(CC(=O)O)cccc1C(=O)c1ccccc1` [Example 27, Sodium 2-Amino-3-benzoylphenylacetate Hydrate], the “Percent Reduction in Aggregation” value ([2]; Table I, 0.00032 mg/kg PO, rats, collagen) is reported as -76%, the “Percent Reduction in Aggregation” value ([2]; Table I, 1.30 mg/kg PO, rats, collagen) is reported as -44% and the “Percent Reduction in Aggregation” value ([2]; Table I, 5.10 mg/kg PO, rats, collagen) is reported as -68%. For the same molecule, the “Percent Reduction in Aggregation” value [2, 8] was -77%.
For `Nc1c(CC(=O)O)cc(Cl)cc1C(=O)c1ccccc1` [Example 6, 2-Amino-3-benzoyl-5-chlorophenylacetic Acid Hemihydrate], the “Percent Reduction in Aggregation” value [2, 9] was -36% and the “Percent Reduction in Aggregation” value [2, 8] was -76%.
For `COc1ccc(C(=O)c2cccc(CC(=O)O)c2N)cc1` [Example 24, 2-Amino-3-(4-methoxybenzoyl)phenylacetic Acid], the “Percent Reduction in Aggregation” value ([2]; Table I, 0.00063 mg/kg PO, rats, collagen) was -73%, the “Percent Reduction in Aggregation” value ([2]; Table I, 4.00 mg/kg PO, rats, collagen) was -88% and the “Percent Reduction in Aggregation” value ([2]; Table I, 25.00 mg/kg PO, rats, collagen) was -71%. The “Percent Reduction in Aggregation” value [2, 8] was -81%.
For `Nc1c(CC(=O)O)cccc1C(=O)c1ccc(Cl)cc1` [Example 14, Sodium 2-amino-3-(4-chlorobenzoyl)phenylacetate Hydrate], the “Percent Reduction in Aggregation” value [2, 7] was -27% and the “Percent Reduction in Aggregation” value [2, 8] was -65%.
For `CCOC(=O)Cc1cccc(C(=O)c2ccccc2)c1N` [Example 9, Ethyl 2-amino-3-benzoylphenylacetate], the “Percent Reduction in Aggregation” value [2, 9] was -49% and the “Percent Reduction in Aggregation” value [2, 8] was -75%.

From patent US4182774A, “Method of inhibiting blood platelet aggregation with 2-amino-3-(5- and 6-)benzoylphenylacetic acids, esters and metal salts thereof” (A. H. Robins Company, Incorporated, priority 1978, dated 1980)
